The source made the active and inactive calls. The calls are words filed in the database; no cut-off is given here.

In data set [1] the target is T1, Cannabinoid receptor 2 (Homo sapiens, UniProt P34972). The data set can be described thus: Agonist activity at human CB2 expressed in mouse AtT20 cells assessed as activation of G-protein gated inwardly rectifying K+ channels measured every 2 sec for 2 mins by FLIPR membrane potential assay. It is filed as cell-based.
Data set [2] concerns the target T2, Cannabinoid receptor 1 (Homo sapiens, UniProt P21554). The data set can be described thus: Agonist activity at human CB1 expressed in mouse AtT20 cells assessed as activation of G-protein gated inwardly rectifying K+ channels at 10 uM measured every 2 sec for 2 mins by FLIPR membrane potential assay. To be noted: att20, 2 min. It is filed as cell-based.
The target in data set [3] is T1, Cannabinoid receptor 2. The data set can be described thus: Agonist activity at human CB2 expressed in mouse AtT20 cells assessed as activation of G-protein gated inwardly rectifying K+ channels at 10 uM measured every 2 sec for 2 mins by FLIPR membrane potential assay. It is filed as cell-based.
Data set [4] deals with T2, Cannabinoid receptor 1. Nature of the data set: Displacement of [3H]-CP55940 from human CB1 expressed in CHO cell membrane incubated for 3 hrs by microbeta scintillation counting method. The data set is classed as cell membranes.
Data set [5] deals with T1, Cannabinoid receptor 2. Nature of the data set: Displacement of [3H]-CP55940 from human CB2 expressed in CHO cell membrane incubated for 3 hrs by microbeta scintillation counting method. The data set is classed as cell membranes. On the technique in general: In a radioligand displacement assay an active substance lowers the binding of a labelled ligand.
In data set [6] the target is T1, Cannabinoid receptor 2. The data set can be described thus: Agonist activity at human CB2 expressed in mouse AtT20 cells assessed as activation of G-protein gated inwardly rectifying K+ channels at 10 uM measured every 2 sec for 2 mins by FLIPR membrane potential assay relative to control. The data set is classed as cell-based. To be noted: filed as agonist.
In data set [7] the target is T2, Cannabinoid receptor 1. Nature of the data set: Agonist activity at CB1 (unknown origin).
Data set [8] has as its target T1, Cannabinoid receptor 2. The data set can be described thus: Agonist activity at CB2 (unknown origin).
In data set [9] the target is T1, Cannabinoid receptor 2. Nature of the data set: Agonist activity at human CB2 expressed in mouse AtT20 cells assessed as maximal activation of G-protein gated inwardly rectifying K+ channels measured every 2 sec for 2 mins by FLIPR membrane potential assay relative to control. To be noted: filed as agonist. It is filed as cell-based.

T2 sequence (P21554 whole entry): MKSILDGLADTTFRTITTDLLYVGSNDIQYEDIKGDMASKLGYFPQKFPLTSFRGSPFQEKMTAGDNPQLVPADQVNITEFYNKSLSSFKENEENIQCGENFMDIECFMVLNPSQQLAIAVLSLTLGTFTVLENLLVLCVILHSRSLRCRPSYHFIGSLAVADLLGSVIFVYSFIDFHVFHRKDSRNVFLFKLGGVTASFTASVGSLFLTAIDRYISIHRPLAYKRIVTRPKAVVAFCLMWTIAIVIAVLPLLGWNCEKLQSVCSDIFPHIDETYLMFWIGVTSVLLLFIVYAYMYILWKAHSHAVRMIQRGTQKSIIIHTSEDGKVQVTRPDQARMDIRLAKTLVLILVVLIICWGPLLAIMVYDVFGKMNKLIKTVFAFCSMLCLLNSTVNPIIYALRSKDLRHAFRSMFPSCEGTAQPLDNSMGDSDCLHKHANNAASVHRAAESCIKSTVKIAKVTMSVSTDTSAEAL
T1 sequence (P34972 whole entry): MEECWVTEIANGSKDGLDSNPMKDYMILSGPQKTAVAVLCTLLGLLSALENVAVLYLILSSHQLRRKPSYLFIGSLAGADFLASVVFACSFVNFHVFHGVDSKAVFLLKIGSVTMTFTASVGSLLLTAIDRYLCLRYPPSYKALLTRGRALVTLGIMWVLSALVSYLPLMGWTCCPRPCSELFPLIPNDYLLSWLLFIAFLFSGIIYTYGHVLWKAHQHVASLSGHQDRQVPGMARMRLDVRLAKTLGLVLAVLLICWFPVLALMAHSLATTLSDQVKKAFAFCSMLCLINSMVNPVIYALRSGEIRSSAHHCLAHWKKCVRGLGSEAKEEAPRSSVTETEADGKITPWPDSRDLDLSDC

`CC(C)(O)COc1ccc(C(F)(F)F)cc1CCc1cc(C(C)(C)C)nn1C[C@H]1CCCO1`: the pEC50 entry on Cannabinoid receptor 2 [1] was “inactive”. Further, the Activity on Cannabinoid receptor 1 [2] and on Cannabinoid receptor 2 [3] was < 50% in each case.
On to `CC(C)(O)COc1ccc(C(F)(F)F)cc1CNc1cc(C(C)(C)C)nn1C[C@H]1CCCO1`, for which, on Cannabinoid receptor 2 [1], the pEC50 entry was “inactive”. Besides, the Activity on Cannabinoid receptor 1 [2] and on Cannabinoid receptor 2 [3] was < 50% each time.
One may read the Ki as a measure of affinity in units of concentration, obtained from inhibition or displacement. As to `CC(C)(O)COc1ccc(C(F)(F)F)cc1C(=O)Nc1cc(C(C)(C)C)nn1C[C@H]1CCCO1`, the Ki at Cannabinoid receptor 1 [4] and at Cannabinoid receptor 2 [5] was > 10000 nM each time.
Take `CC(C)(O)COc1ccc(C(F)(F)F)cc1NC(=O)Nc1cc(C(C)(C)C)nn1C[C@H]1CCCO1`: the Activity on Cannabinoid receptor 2 [6] was 54%; at Cannabinoid receptor 1 [2], < 50%.
As to `CC(C)(O)COc1ccc(C(F)(F)F)cc1S(=O)(=O)Nc1cc(C(C)(C)C)nn1C[C@H]1CCCO1`, the pEC50 result at Cannabinoid receptor 2 [1] was “inactive”. The Activity at Cannabinoid receptor 1 [2] and at Cannabinoid receptor 2 [3] was < 50% throughout.
`CC(C)(O)COc1ccc(C(F)(F)F)cc1/C=C/c1cc(C(C)(C)C)nn1C[C@H]1CCCO1`: the Activity on Cannabinoid receptor 2 [6] is 54%; at Cannabinoid receptor 1 [2], < 50%.
In the case of `CC(C)(O)COc1ccc(C(F)(F)F)cc1-c1cc(C(C)(C)C)nn1C[C@H]1CCCO1`, the pEC50 result at Cannabinoid receptor 2 [1] was “inactive”. Further, the Activity on Cannabinoid receptor 1 [2] and at Cannabinoid receptor 2 [3] was < 50% in each case.
For the compound `Cn1c(C(C)(C)C)c/c(=N\C(=O)c2cc(C(F)(F)F)ccc2OCC(C)(C)O)n1C[C@H]1CCCO1`, the EC50 was > 10000 nM on Cannabinoid receptor 1 [7] and 19 nM on Cannabinoid receptor 2 [8]. The Ki at Cannabinoid receptor 1 [4] was > 10000 nM; on Cannabinoid receptor 2 [5], 5.9 nM.
As usually defined, the Emax is the maximal effect, on the per cent scale that the assay sets. Consider `CC(C)(O)COc1ccc(C(F)(F)F)cc1NC(=O)c1cc(C(C)(C)C)nn1C[C@H]1CCCO1`, for which the figures for the EC50 at Cannabinoid receptor 2 [1] (read-out: EC50) and on Cannabinoid receptor 2 [1] (read-out: pEC50 (converted)) were 6760 nM and 5250 nM, respectively. For the same compound, the Emax at Cannabinoid receptor 2 [9] amounted to 106%. Besides, on Cannabinoid receptor 1 [2], the Activity is listed as < 50%.
In the case of `CC(C)(O)COc1ccc(C(F)(F)F)cc1-c1cn(-c2cc(C(C)(C)C)nn2C[C@H]2CCCO2)nn1`, the pEC50 result on Cannabinoid receptor 2 [1] was “inactive”. In addition, the Activity at Cannabinoid receptor 1 [2] and at Cannabinoid receptor 2 [3] was < 50% throughout.
As for `CN(C(=O)c1cc(C(F)(F)F)ccc1OCC(C)(C)O)c1cc(C(C)(C)C)nn1C[C@H]1CCCO1`, at Cannabinoid receptor 2 [1], the pEC50 result was “inactive”. Also, the Activity on Cannabinoid receptor 1 [2] and at Cannabinoid receptor 2 [3] was < 50% each time.
Consider `CC(C)(O)COc1ccc(C(F)(F)F)cc1-c1ccc2c(C(C)(C)C)nn(C[C@H]3CCCO3)c2c1`, for which the EC50 at Cannabinoid receptor 2 [1] (read-out: EC50) stood at 673 nM. Further, on Cannabinoid receptor 2 [9], the maximum response (Emax) turned out to be 104%. On Cannabinoid receptor 1 [2], the Activity is given as < 50%.
For the compound `CC(C)(O)COc1ccc(C(F)(F)F)cc1C(=S)Nc1cc(C(C)(C)C)nn1C[C@H]1CCCO1`, the Activity on Cannabinoid receptor 2 [6] is 51%; on Cannabinoid receptor 1 [2], < 50%.
`CC(C)(O)COc1ccc(C(F)(F)F)cc1C(=O)Oc1cc(C(C)(C)C)nn1C[C@H]1CCCO1`: the EC50 on Cannabinoid receptor 2 [1] (read-out: EC50) is 1280 nM. The Emax at Cannabinoid receptor 2 [9] amounted to 106%. In addition, the Activity at Cannabinoid receptor 1 [2] is < 50%.
The like results for `CC(C)(O)COc1ccc(C(F)(F)F)cc1-c1ncc2c(C(C)(C)C)nn(C[C@H]3CCCO3)c2n1` were, in that order, 41 nM, 106% and < 50%.
In the case of `CC(C)(O)COc1ccc(C(F)(F)F)cc1Nc1cc(C(C)(C)C)nn1C[C@H]1CCCO1`, the pEC50 result on Cannabinoid receptor 2 [1] is “inactive”. In addition, the Activity at Cannabinoid receptor 1 [2] and at Cannabinoid receptor 2 [3] was < 50% throughout.
For the compound `CC(C)(O)COc1ccc(C(F)(F)F)cc1-c1ccc(-c2cc(C(C)(C)C)nn2C[C@H]2CCCO2)o1`, on Cannabinoid receptor 2 [1], the pEC50 result was “inactive”. Moreover, the Activity at Cannabinoid receptor 1 [2] and on Cannabinoid receptor 2 [3] was < 50% in each case.
As to `CC(C)(O)COc1ccc(C(F)(F)F)cc1C#Cc1cc(C(C)(C)C)nn1C[C@H]1CCCO1`, the Activity on Cannabinoid receptor 2 [6] was 62%; at Cannabinoid receptor 1 [2], < 50%.
As to `CC(C)(O)COc1ccc(C(F)(F)F)cc1-c1nnc2c(C(C)(C)C)nn(C[C@H]3CCCO3)c2n1`, the EC50 on Cannabinoid receptor 2 [1] (read-out: EC50) was 19 nM. For the same compound, the Emax on Cannabinoid receptor 2 [9] came to 115%. Further, the Ki at Cannabinoid receptor 1 [4] was > 10000 nM; at Cannabinoid receptor 2 [5], 17 nM. Also, the Activity on Cannabinoid receptor 1 [2] is given as < 50%.

(Values after ChEMBL document CHEMBL4732127, “The discovery of a potent and selective pyrazolo-[2,3-e]-[1,2,4]-triazine cannabinoid type 2 receptor agonist” (Eur J Med Chem, 2021).)
